Test results: US20230015647A1, “INHIBITORS OF HISTONE DEMETHYLASES (PFI-63 AND PFI-90) FOR THE TREATMENT OF CANCER AND FOR THE INHIBITION OF HISTONE DEMETHYLASE IN CELLS” (The United States of America,as represented by the …, priority 2019, published 2023)
“Also recorded” adds a separate entry of the source.

Assays:
[1] = tested on: NCI-60 cancer cell line panel; assay: NCI-60 cancer cell line panel, percentage growth; type: cell-based, human
Protocol: This example describes the testing of PFI-90 against the NCI-60 panel. The NCI-60 cancer cell line panel is a collection of 60 human cancer cell lines maintained by the National Cancer Institute (see Shoemaker et al., Nat. Rev. Cancer, 6: 813-823 (2006)). Briefly, the percentage growth of the cancer cells lines was measured in the presence of PFI-90 at various concentrations.

[2] = tested on: truncated KDM3B catalytic domain; assay: 1D 1H NMR chemical shift perturbation; type: binding; settings: 300 uM PFI-90, 12 uM protein, with or without 100 uM 2-OG
Description: For reference, FIG. 63 depicts NMR peaks for PFI-90. While the peaks are complex, all relevant peaks are clearly resolved. FIG. 64 depicts NMR peaks obtained for […] (also called 2-oxoglutaric acid or “2-OG”), a substrate of histone demethylases. 2-OG peaks are easily resolved. FIG. 65 depicts results from a 1D 1H analysis of PFI-90.

## O=C(NNc1ccccn1)c1ccccn1 [PFI-90]
[1]; CNS cancer cell lines
  cell growth: inhibits cell growth
[1]; breast cancer cell lines
  cell growth: inhibits cell growth
[1]; colon cancer cell lines
  cell growth: inhibits cell growth
[1]; leukemia cell lines
  cell growth: slows and/or stops the growth of the cells; also recorded: inhibits cell growth
[1]; melanoma cell lines
  cell growth: inhibits cell growth
[1]; non-small cell lung cancer cell lines
  cell growth: inhibits cell growth
[1]; ovarian cancer cell lines
  cell growth: inhibits cell growth
[1]; prostate cancer cell lines
  cell growth: inhibits cell growth
[1]; renal cancer cell lines
  cell growth: inhibits growth and leads to cell death; also recorded: inhibits cell growth and induces cell death
[2]
  chemical shift perturbation upon addition of truncated KDM3B catalytic domain: not influences by 2-OG presence; also recorded: not influenced by the presence of 2-OG
